Patent US20160115196A1, “SELF-ASSEMBLED MICRO-AND NANOSTRUCTURES” (NORTHWESTERN UNIVERSITY, priority 2013, published 2016)
Blank lines part the entries; values can stand above or below the molecule they belong to. Where no end group is shown, it is not given here. [ ]: non-standard residue; d: D form. Dopa = N[C@@H](Cc1ccc(O)c(O)c1)C(=O)O

Columns and labels:
[1] = Silver reduction / silver deposition assay; conditions: silver nitrate added to pre-formed assemblies; TEM, HR-SEM or E-SEM
Description: Silver reduction assay was performed with pre-prepared Fmoc-DOPA-DOPA hydrogels at a concentration of 5 mg/mL (8.35 mM). 50 μL of 13.2 mM silver nitrate were added to 500 μL hydrogel aliquots by gentle pipetting, resulting in 1.2 mM final concentration of silver nitrate. This solution was incubated at room temperature for several days. At different time points, 10 μL aliquots were taken for TEM analysis and negative staining was not applied. To examine silver reduction using UV-vis spectroscopy, silver nitrate was added to a 5 mg/mL hydrogel pre-prepared as described above and 150 μL aliquots of Fmoc-DOPA-DOPA hydrogel with or without silver nitrate were pipetted into a 96-well UV-Star UV transparent plate (Greiner BioOne, Frickenhausen, Germany) Spectra were collected after 5 days using a Biotek Synergy HT plate reader over the range of 300-700 nm and compared to blank samples of silver nitrate only, or of the peptide only.
Peptide stock solution was diluted to a final concentration of 5 mg/ml in double distilled water. Then metal salt (AgNO3) was added to the sample and the samples were analyzed by TEM or HR-SEM. AgNO3 concentration was determined according to the final catechol concentration in the peptide, with a constant ratio of [AgNO3]/[Catechol]=0.0723.
Silver deposition was done by preparing 15 mM peptide solutions and removing residual peptide monomers. This was done by centrifugation at 12,000 RPM for 15 min, discarding the supernatant and resuspention in ultra-pure water. This procedure was repeated once more. Samples for electron microscopy were taken as control and the solution was centrifuged at 12,000 RPM for 15 min and resuspended in an aqueous solution of 2.17 mM AgNO3 for 15 min Finally, the solution was centrifuged at 9000 RPM for 10 min and resuspended in water. Samples for electron microscopy were taken again.

[2] = AFM force mapping adhesion measurements with colloidal probe (Embodiment 2); type: physicochemical; conditions: for mean adhesion force from force map histogram: tip velocity 1000 nm/s, compressive force 20 nN
Description: In an alternative embodiment, AFM analysis was performed using an Asylum MFP-1D AFM instrument (Asylum Research, Santa Barbara, Calif., USA).
The AFM measurment was performed by emploting force mapping while simultaneously providing nanoscale topographical and mechanical information about the hydrogel. Force mapping involves generating individual force curves at discrete points on a material, which are then used to calculate stiffness and height values.
(§1) After overnight incubation, 10 μL of each sample were deposited on a glass slide and dried at room temperature. Force measurements of the samples were conducted using a SiO2 colloidal probe (tip velocity 1000 nm/s, compressive force 20 nN). To investigate the glass surface area morphology after peeling, 30 μL of freshly prepared Fmoc-DOPA-DOPA-Lys solutions (12.5 mg/mL, prepared in DMSO or ethanol as described above) were deposited between two microscope glass slides. This construct was incubated overnight at room temperature under 100 mg weight Finally, the upper glass slide was peeled off and the contact area of either slide was imaged using an Ultrasharp AFM probe (NSC21/Ti-Pt, MikroMasch) operated in tapping mode.

[3] = Thermal perturbation of assemblies (temperature-dependent CD, FTIR, TEM); type: physicochemical; conditions: 0.15 mM in water, stepwise 18° C. to 90° C. and back
Description: CD spectra were collected as described above except that the spectra were obtained throughout temperature variation done in a stepwise fashion up and then down. […] (in the following steps: 25° C., 37° C., 50° C., 70° C., 90° C., 70° C., 50° C., 37° C., 25° C.). The sample was allowed to equilibrate for 10 min and the temperature was monitored by a thermocouple in the cuvette holder block. At the end of the measurments, the cuvette content was sampled for TEM and FTIR analysis as described above. As control, TEM and FTIR samples were taken from an aliquot of the same solution which was not subjected to temperature variations.

[4] = Rheological measurements of in situ-formed hydrogel; type: physicochemical; conditions: 5 mg/mL
Description: Rheological measurements for in situ-formed Fmoc-DOPA-DOPA hydrogel were performed using an AR-G2 rheometer (TA Instruments, New Castle, Del., USA). Time-sweep oscillatory tests in 20 mm parallel plate geometry were conducted at 0.7% strain and 1 Hz frequency on 200 μL of fresh solution (resulting in a gap size of about 0.6 mm), 1 min after its preparation. In order to determine the linear viscoelastic region oscillatory strain (0.01-100%) and frequency sweep (0.01-100 Hz) tests were conducted 45 min after diluting the stock solution with Milli-Q water. All rheology tests were done in triplicates and averaged.

[5] = Macroscopic adhesion of two glass slides and peeling; type: physicochemical; conditions: prepared in ethanol or DMSO
Description: as §1

Molecule: 3,4-dihydroxyphenyl-L-alanine-(3,4-dihydroxyphenyl-L-alanine) [DOPA-DOPA]
reduction of ionic silver / silver deposition on assemblies [1]: formation of silver particles

mean adhesion force from force map histogram ([2]; 1 mg/ml in 1% ethanol, one day of assembly): 31±10.6 nN
Molecule: O=C(N[C@@H](Cc1ccc(O)c(O)c1)C(=O)O)OCC1c2ccccc2-c2ccccc21 [Fmoc-DOPA]

Molecule: D[Dopa]NK[Dopa]
stability of the ultrastructure to elevated temperature [3]: ultrastructure is impaired by elevated temperatures
reduction of ionic silver / silver deposition on assemblies [1]: possess the ability to reduce ionic silver

Molecule: Fmoc-DOPA-DOPA
storage modulus at 25° C. or 37° C. relative to hydrogels formed at 4° C. [4]: approximately 40 fold
storage modulus (G′) versus loss modulus (G″) in the linear region ([4]; 25° C.): more than one order of magnitude larger than the loss modulus
reduction of ionic silver / silver deposition on assemblies [1]: seamless coating of the peptide assemblies was clearly observed
mean adhesion force from force map histogram ([2]; 5 mg/ml in 5% ethanol): 36±11 nN

adhesion force (force map) ([2]; 1.25 wt% (12.5 mg/mL) prepared in 12.5% DMSO and water): > 300 nN
adhesion force (force map) ([2]; 1.25 wt% (12.5 mg/mL) prepared in 12.5% ethanol and water): more than 214 nN
Molecule: Fmoc-DOPA-DOPA-Lys
macroscopic adhesive properties [5]: capable of gluing together two glass slides
